Consider `Cc1oc(-c2ccccc2)nc1COc1ccc(COc2ccc3ccccc3c2CC(=O)O)cc1`, for which the melting point lay within 187 to 188 °C. Consider `Cc1oc(-c2ccco2)nc1COc1ccc(Cn2cc(CCC(=O)O)c(-c3ccccc3)c2)cc1`, for which the melting point lay in the range of 86 to 87 °C. To `COc1cc(CC(C)=O)ccc1OCC(O)CN1CCN(c2ccccc2C)CC1` (stereo not drawn) belongs 128 °C; to `CCCCOC(=O)[C@H]1CN(c2ccc(C3CCSCC3)c(F)c2)C(=O)O1`, 98 to 100 °C; to `CCOc1ccccc1-c1cccc(-n2cnc(-c3nc(C)no3)c2)c1`, 110 to 113 °C. The molecule `Cc1ccc(-c2c(C#N)n(C)c(=O)c3cnccc23)cc1` showed a melting point of 201 to 202 °C. For `CCCn1cc2c(C3C(=O)Nc4ccc(Br)cc43)nc(NCc3cccnc3)nc2n1` (stereo not drawn), the melting point was in the range of 277 to 281 °C.

For `CCCCc1csc2ccc3[nH]c4c(c3c12)CN(C)CC4`, the melting point lay in the range of 192 to 193 °C.

With `CC(C)C(=Nc1ccc([N+](=O)[O-])c(C(F)(F)F)c1)N(C)c1ccccc1`, the melting point was in the range of 52.5 to 54 °C.

Molecule `O=C1CC(CSc2nc3ccccc3s2)C(=O)O1` (stereo not drawn) showed a melting point of 87 to 88 °C. `Clc1ccc(-c2noc(CCC#Cc3ccccn3)n2)c(Cl)c1` yielded a melting point of 77 to 78 °C.

Consider `O=c1ccc2c(-n3cnc(-c4ccccc4)c3)nccc2[nH]1`, for which the melting point was 263 to 265 °C. For `CC1=C(O)C(=O)C(C)C1` (stereo not drawn) the value was 92 to 93 °C; for `CC(C)(C)c1cc(CCc2ccccc2NC(=O)NCc2ccccn2)cc(C(C)(C)C)c1O`, 189 to 190 °C; for `CC(=O)N1CC(=O)N/C(=C\c2ncoc2C(C)(C)C)C1=O`, 145 to 147 °C. For `CCCCN(CCCC)c1ccc(C=Cc2ccc(C=CC3=C(C#N)C(=C(C#N)C#N)OC3(C)C)cc2)cc1` the value was 224 to 226 °C.

For `COc1cccc(NS(=O)(=O)c2ccc(N3CCNC3=O)cc2)c1`, the melting point fell in the range of 179 to 181 °C.

Molecule `O=C1c2ccccc2C(=O)N1C1CCN(CCCc2c[nH]c3ccccc23)CC1` returned a melting point of 187 to 190 °C.

Molecule `O=C(Cl)CCS(=O)(=O)CCCl` showed a melting point of 73 to 75 °C. For `CC1(C)OCC2Cc3cc4c(cc3C(c3ccc([N+](=O)[O-])cc3)=NN21)OCO4` (stereo not drawn) the value was 171 to 173 °C.

Take `CCSc1cc(C)nc(SCC)c1NC(=O)CCCCSc1nc2ccccc2o1`: the melting point lay in the range of 122 to 123 °C. In turn, `CC(C)(C)c1cc(C=O)c(O)c(S(=O)(=O)CCl)c1` came in with a melting point of 128 to 129 °C. The molecule `O=C(O)c1cc(C(F)(F)F)cc(Cl)c1-n1cnc(C(F)(F)F)cc1=O` returned a melting point of 225 °C. `CC(C=CCO)Oc1ccc(Oc2cnc3cc(F)ccc3n2)cc1` (stereo not drawn): the melting point lay within 109 to 111 °C.

`OCCOCCn1ccc2ncnc(Nc3ccc(Oc4cccc(C(F)(F)F)c4)c(Cl)c3)c21` registered a melting point of 130 to 132 °C. To `Cc1c(OCC(F)(F)F)ccnc1CSc1nc2ccccc2n1NC(=O)OC(C)(C)C` belongs 153 to 155 °C; to `Cc1ccc(N)cc1C(=O)NS(C)(=O)=O`, 174 to 176 °C. `Cc1ccc(-c2cc3cc(-c4ccccc4)ccc3o2)cc1` displayed a melting point of 156 to 158 °C. To `C=CCn1[nH]c2cc(OC)ccc2c1=O` belongs 126 °C; to `Oc1c(Cl)cc(Cl)cc1Cc1cc(F)cc(Cc2cc(Cl)cc(Cl)c2O)c1O`, 168 °C; to `COc1ccc(C(=O)Nc2ccc3ccc(C)nc3n2)cc1`, 119 °C. To `O=C(O)c1cccc(-c2ccc3c(c2)C(Oc2cccc(C(F)(F)F)c2)CC3)c1` (stereo not drawn) belongs 175 to 185 °C.

The molecule `CCCOCCOc1ccc(-c2ccc3c(c2)C=C(C(=O)OC)CCN3c2ccccc2)cc1` had a melting point of 117 to 119 °C. For `N#Cc1cc(Cn2cncn2)cc(-c2ccc(OS(N)(=O)=O)cc2)c1` the value was 166 to 167 °C. For `CN(O)C(=O)NCCCCCCOc1ccc(-c2ccccc2)cc1` the value was 148 to 150 °C. To `CSC(C(=O)c1cc(-c2ccccc2)on1)N(C)C` (stereo not drawn) belongs 98 to 99.5 °C.

For the molecule `COC(=O)C1=Cc2cc(-c3ccc(OC)cc3)ccc2S(=O)(=O)CC1`, the melting point fell in the range of 191 to 193 °C. For `O=c1[nH]c2cc(Cl)ccc2c(O)c1-c1ccccc1Oc1ccccc1` the value was 284 to 288 °C; for `O=c1c2ccccc2n(CCCOC2CCCCO2)c2ccccc12` (stereo not drawn), 140 to 142 °C.

Consider `Nc1ccc2c(c1)COc1cc(Nc3ccc(C(F)(F)F)cc3N)ccc1C2=O`, for which the melting point is 93.9 °C. To `CC(C)NCC(O)COc1nccnc1C1CNCCO1` (stereo not drawn) belongs 74 to 76 °C; to `c1ccc2c(c1)CCCC2c1c[nH]cn1` (stereo not drawn), 105 to 110 °C; to `O=C(/C=C/[C@H]1CC[C@@H]2OC(=O)C[C@@H]21)COc1ccccc1`, 91 °C. For `O=C(C=Cc1ccc(OC(F)(F)F)cc1)N1CCc2c([nH]c3ccccc23)C1c1ccc2c(c1)OCO2` (stereo not drawn) the value was 203 to 205 °C.

Take `Cc1cc2ccccc2nc1Sc1ccc2c(c1)CC[C@H]1N(C)C(=O)CC[C@]21C`: the melting point was 185 to 193 °C.

Regarding `CCn1c(=O)n(O)c(=O)c2cc(F)c(N3CCNCC3)cc21`, the melting point lay within 206 to 208 °C. To `Cc1cc2c(-c3ccccc3)nc(N3CCN(CC(O)c4ccc(F)cc4)CC3)nc2s1` (stereo not drawn) belongs 180 to 182 °C; to `CN(C)Cn1cnc2c1c(=O)n(C)c(=O)n2C`, 121 to 123 °C; to `COc1ccccc1-c1ccc(C(=O)N2Cc3ccc(C(=O)NCc4cccnc4)n3Cc3ccccc32)cc1C`, 119 to 124 °C. To `COc1ccc(C(=NOC(C)=O)c2ccccc2F)c(O)c1C` belongs 83 to 86 °C; to `Fc1ccc(-c2c3cccc(C(F)(F)F)c3nn2Cc2ccc(F)cc2Cl)cc1`, 78 °C. The molecule `NNC(=O)CCCSc1nccc(NC(N)=NCC(F)(F)F)n1` returned a melting point of 192 to 195 °C. For `CCCN1CCCC(NC(=O)C(Cc2ccc(OCc3ccccc3)cc2)NC(=O)C(CC(C)C)N(C)Cc2ccc(N(C)C)cc2)C1` (stereo not drawn) the value was 131 to 133 °C.

For the molecule `O=C(c1ccc(Nc2ccnc3cc(Cl)ccc23)cc1)N1CCNCC1`, the melting point was in the range of 248 to 250 °C. To `COC(=O)c1cc(-c2ccc3c(=O)[nH]c(=O)[nH]c3n2)ccc1OC` belongs 301 to 303 °C; to `CCOC(=O)CNC(=O)Nc1c(-c2ccccc2OC)c2ccccc2c(=O)n1C`, 128 to 130 °C; to `O=c1nc(-c2ccccc2)c2cc([N+](=O)[O-])sc2n1CC1CC1`, 216 to 218 °C. To `O=C1NC(=O)C(=Cc2ccc(-c3cc(C45CC6CC(CC(C6)C4)C5)c4oc(NC(=O)C(F)(F)F)nc4c3)nc2)S1` belongs 353 °C; to `Cc1cc(C)cc(C(=O)N2CCC(=O)CC2Cc2ccccc2)c1` (stereo not drawn), 108 °C. For `CN1C(=O)N(c2cc(Cl)cc(Cl)c2)C(=O)[C@]12CN(Cc1ccccc1)C[C@H]2c1ccc(Br)cc1` (relative stereo) the value was 204 °C; for `Cc1nc(-c2cc(C#N)c(=O)[nH]c2C)cs1`, 305 to 307 °C; for `COC(=O)c1cccc(-c2ccccc2C#N)c1`, 83 to 85 °C. The molecule `NC(=O)c1nc(-c2ccccn2)n2c1CN=C(c1ccccc1Cl)c1cc(Cl)ccc1-2` showed a melting point of 255 to 257 °C. For `Cc1cc2c(-c3ccccc3)c(C(=O)NCc3cc(C(F)(F)F)cc(C(F)(F)F)c3)n(CC(N)=O)c(=O)c2cc1C` the value was 235 to 237 °C; for `CN1C(=O)[C@H](NC(=O)CCc2ccccc2)N=C(c2ccccc2)c2ccccc21`, 179 °C; for `O=C(O)CCCCCOc1cc(-c2ccccc2)cc(-c2ccccc2)n1`, 87 to 88 °C. To `O=C(CNCCO)Nc1cccc([N+](=O)[O-])c1` belongs 145 to 147 °C. Turning to `O=c1[nH]c(=O)n([C@@H]2CO[C@H](CO)[C@@H](O)C2)cc1I`, the melting point is 219 to 220 °C. To `N#Cc1cc(O)cc(F)c1` belongs 138 to 139 °C; to `O=C(O)CCCCc1cccc2cncn12`, 161 to 163 °C; to `COC(=O)COC1C(O)C(CO)OC(Oc2ccc(N)cc2)C1O` (stereo not drawn), 155 °C. Consider `CC(C)(C)OC(=O)COc1ccc(NC(=O)NC(=O)c2ccc(C(N)=S)nc2)cc1`, for which the melting point was 248 to 249 °C. To `CCc1ccc(-c2ccc(CCc3ccc(C(F)(F)F)cc3)cc2)cc1` belongs 128 °C; to `Nc1c(Cl)cnnc1Cl`, 176 to 178 °C. Molecule `CC(C)(C)c1cc(CCCCCCc2cc(C(C)(C)C)c(O)c(C(C)(C)C)c2)cc(C(C)(C)C)c1O` displayed a melting point of 147 to 149 °C.

Turning to `CCOC(=O)C=Cc1cccc(Nc2ccc3nc[nH]c3c2)c1`, the melting point lay in the range of 188 to 190 °C. As for `CSC1C(=O)Nc2c(-c3ccccc3)cccc21` (stereo not drawn), the melting point was 164 to 166 °C. For `COc1cc(-c2cnc3[nH]cc(C(=O)Cc4ccccc4)c3n2)cc(OC)c1OC` the value was 226 to 227 °C. In turn, `Cc1sc(C(N)=O)c2c1-c1c(cnn1C)CC2` yielded a melting point of 184 to 185 °C. For `COc1cc(C(=O)C(Br)CCC2CCCCC2)c(OC)cc1Cl` (stereo not drawn) the value was 73 to 74 °C; for `COc1cc(OC)nc(NC(=O)NS(=O)(=O)N=CN(CSC)OC)n1`, 165 to 167 °C. `CCOC(=O)c1cc(N=Cc2ccccc2)ccc1O`: the melting point was 63 to 65 °C.

`COC(=O)c1ccc(-n2cccc2)cc1` gave a melting point of 128 to 129 °C.

On to `NC(=S)c1nccn1Cc1cccs1`, for which the melting point was 152 to 153 °C.

As for `Cc1ccc(CCN(C)CCCCCC2Cc3cc(O)ccc3C3C(F)CC4(C)C(O)CCC4C23)cc1` (stereo not drawn), the melting point is 142 to 143 °C. To `O=C(NCc1ccc2c(c1)OCO2)c1ccc2n1Cc1ccccc1N(C(=O)CSc1ccc(Br)cc1)C2` belongs 154 to 155 °C. In the case of `CON=C(C(N)=O)c1cnccn1`, the melting point fell in the range of 188 to 190 °C. On to `OCCc1nccn1CCCCc1ccc(O)cc1`, for which the melting point is 75 to 77 °C.
